Experimental data: ChEMBL document CHEMBL1201862, “PubChem BioAssay data set” (2004)
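Dose response: 5 concentrations. Exposure: 48 h. Format: 96-well plates. Endpoint: linear interpolation; highest concentration if not reached. GI50: concentration for 50% inhibition of growth.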 Active and inactive are the calls of the source. Rule as the data show it: active = GI50 up to about 1.1 µM and inactive = higher.

Assays:
Assay in all cases: NCI tumour cell line growth inhibition, 48 h
HCT-15 = test system: HCT-15
UACC-62 = test system: UACC-62
SF-539 = test system: SF-539
SF-268 = test system: SF-268
SW-620 = test system: SW-620
786-0 = test system: 786-0
M14 = test system: M14
NCI-H226 = test system: NCI-H226
ACHN = test system: ACHN
OVCAR-4 = test system: OVCAR-4
UO-31 = test system: UO-31
SF-295 = test system: SF-295
CAKI-1 = test system: CAKI-1
Hs-578T = test system: Hs-578T
A549 = test system: A549
IGROV-1 = test system: IGROV-1
A498 = test system: A498
HOP-62 = test system: HOP-62
SK-OV-3 = test system: SK-OV-3
OVCAR-5 = test system: OVCAR-5

Measured: GI50

CC1=NN(C(=O)c2ccccc2O)C(=O)/C1=C/c1c(O)ccc2ccccc12
0.48 µM: HCT-15
inactive: NCI-H226 1.53 µM | SF-295 2.23 µM | CAKI-1 1.32 µM | Hs-578T 21.4 µM | A549 2.06 µM | IGROV-1 1.22 µM | A498 2.44 µM | OVCAR-5 4.11 µM
active: UACC-62 0.287 µM | SF-539 0.804 µM | SF-268 0.723 µM | SW-620 0.863 µM | 786-0 0.316 µM | M14 0.587 µM | ACHN 0.955 µM | OVCAR-4 0.468 µM | UO-31 0.968 µM | HOP-62 0.944 µM | SK-OV-3 0.741 µM

O=C(Nc1ccccc1)OCCN=C1c2ccccc2C(Br)C(Br)c2ccccc21 (stereo not given)
inactive: UACC-62 11 µM | SF-539 5.07 µM | SF-268 10.5 µM | SW-620 4.43 µM | 786-0 2.82 µM | M14 4.34 µM | NCI-H226 12.6 µM | ACHN 10.2 µM | OVCAR-4 5.38 µM | UO-31 2.02 µM | SF-295 17.1 µM | CAKI-1 6.49 µM | Hs-578T 12.4 µM | A549 16 µM | IGROV-1 6.52 µM | A498 13.2 µM | HOP-62 15.1 µM | SK-OV-3 15.7 µM | OVCAR-5 16 µM
3.85 µM: HCT-15
